The values that follow come from patent US10029984B2, “Mono- or di-substituted indole derivatives as dengue viral replication inhibitors” (Janssen Pharmaceuticals, Inc., priority 2015, dated 2018).

One data set deals with Vero cells. In words: in vitro. It counts as cell-based. Conditions: African green monkey. In outline: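 On the same plates after eGFP read-out, resazurin was added and cells incubated a further 5 h at 37 °C, 5% CO2; resorufin fluorescence read with 530 nm excitation. CC50 is the concentration halving resazurin conversion versus cell control; SI = CC50/EC50.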
A further data set relates to DENV-2 16681 strain. In words: DENV-2 antiviral assay (eGFP-labeled virus in Vero cells). It counts as cell-based, Dengue virus. Conditions: DENV-2 16681 eGFP, MOI 0.5, 3 days, listed as 10B*. Summed up: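 Vero cells were pre-plated with compound overnight, then infected with eGFP-labeled DENV-2 16681 at MOI 0.5 and incubated 3 days at 37 °C. eGFP fluorescence read by automated microscopy; 9-point 4-fold dilutions (25 μM–0.00038 μM final) in quadruplicate, EC50 by linear interpolation versus virus and cell controls.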

The next data set in a line: in vitro. In kind it is cell-based. The conditions noted are these: African green monkey, CC50.

`COc1cc(NC(C(=O)c2c[nH]c3cc(OC)c(C)cc23)c2ccc(F)cc2OC)cc(S(C)(=O)=O)c1` (single isomer, unassigned) [Enantiomer 10B, 2-(4-fluoro-2-methoxyphenyl)-2-((3-methoxy-5-(methylsulfonyl)phenyl)amino)-1-(6-methoxy-5-methyl-1H-indol-3-yl)ethanone] came in with a CC50 with Vero cells of 4.5 µM. In addition, it took 0.00067 µM to reach a half-maximal effect with DENV-2 16681 strain (EC50). Besides, in the data set “in vitro”, the CC50 at 3 days is 5.14 µM.

By CC50 is commonly meant the concentration that lowers cell viability or growth by half. The term EC50 denotes the concentration needed to bring the measured effect to its halfway point.
